Laboratory results reported in paper PMC8262356, “SLC26A6-selective inhibitor identified in a small-molecule screen blocks fluid absorption in small intestine” (JCI Insight, 2021).

How the values were obtained:
Solubility = format: physicochemical
[1] = system: ileal closed loops in cystic fibrosis (CF) mice (homozygous F508del); assay: Closed ileal loop fluid absorption in CF mice; format: in vivo, mouse; details: 30 μM luminal
Method: For fluid absorption studies in small intestine, mice were given free access to 5% dextrose in water but not solid food for 24 hours before experiments. Closed midjejunal and ileal loops were prepared and isolated as described previously ([29]). Mice were anesthetized with isoflurane, and body temperature was maintained during surgery at 36°C–38°C using a heating pad. A small abdominal incision was made to expose small intestine for isolation of 3–4 closed small intestinal loops (jejunum or ileum, length 2–3 cm) with sutures. Loops were injected with 100 μL PBS (pH 7.4, 137 mM NaCl, 2.7 mM KCl, 8 mM Na2HPO4, 1.8 mM KH2PO4, 1 mM CaCl2, 0.5 mM MgCl2) containing 30 μM PAT1inh-B01, 10 μM DRAinh-A270, or 10 μM tenapanor (MedChemExpress) (or vehicle, 0.1% DMSO in PBS). In some experiments, 30 μM PAT1inh-B01 and 10 μM DRAinh-A270 were used together. In some experiments to rule out effects of sodium-dependent phosphate transport, the loop lumen contained HEPES-buffered saline (pH 7.4, 137 mM NaCl, 4.5 mM KCl, 10 mM HEPES, 1 mM CaCl2, 0.5 mM MgCl2). The abdominal incision was closed with sutures, and mice were allowed to recover from anesthesia. Intestinal loops were removed at 0 and 30 minutes (in separate mice), and loop length and weight were measured to quantify fluid absorption. In parallel experiments, CF mice were used and loop studies were done as described above. In some experiments, loop fluid was emptied with a syringe, and pH was measured immediately using AB15 pH meter after brief centrifugation at 2000 g for 5 minutes at 4°C.

slc26a4 = biological target: T1, slc26a4 (Mus musculus, UniProt Q9R155); assay: Selectivity: Cl-/I- exchange in FRT cells coexpressing YFP and slc26a4; format: cell-based; details: 25 μM
T1 construct: expressed in transfected cells; host or cells: FRT cells coexpressing YFP
T1 sequence (Q9R155 1-780): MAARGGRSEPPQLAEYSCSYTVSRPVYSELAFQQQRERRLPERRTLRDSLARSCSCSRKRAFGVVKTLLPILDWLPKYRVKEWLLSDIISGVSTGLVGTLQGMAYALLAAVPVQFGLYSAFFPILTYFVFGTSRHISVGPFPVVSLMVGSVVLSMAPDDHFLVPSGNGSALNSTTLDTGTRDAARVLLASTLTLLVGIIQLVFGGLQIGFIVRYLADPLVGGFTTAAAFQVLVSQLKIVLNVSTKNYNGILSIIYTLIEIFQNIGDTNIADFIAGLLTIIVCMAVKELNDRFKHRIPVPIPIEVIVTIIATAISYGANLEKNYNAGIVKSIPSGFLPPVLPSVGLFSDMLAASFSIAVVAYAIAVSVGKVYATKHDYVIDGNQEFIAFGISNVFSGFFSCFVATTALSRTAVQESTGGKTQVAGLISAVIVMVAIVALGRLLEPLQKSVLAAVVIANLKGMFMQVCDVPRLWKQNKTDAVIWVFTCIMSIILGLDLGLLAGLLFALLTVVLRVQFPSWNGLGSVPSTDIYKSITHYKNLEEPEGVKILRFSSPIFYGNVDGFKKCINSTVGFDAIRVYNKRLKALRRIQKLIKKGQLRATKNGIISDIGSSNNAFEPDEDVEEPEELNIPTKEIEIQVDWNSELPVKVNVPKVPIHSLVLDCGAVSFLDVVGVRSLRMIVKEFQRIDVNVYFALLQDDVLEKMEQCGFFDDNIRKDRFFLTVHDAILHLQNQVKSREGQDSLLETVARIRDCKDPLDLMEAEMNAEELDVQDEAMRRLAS
Method: PAT1inh-B01 selectivity was studied by testing its effects on related SLC26A family anion transporters and the Cl^– channel TMEM16A. These measurements used a similar Cl^–/I^– exchange protocol, but FRT cells separately expressed each of the SLC26A family members or TMEM16A. […] PAT1inh-B01 selectivity was also tested by short-circuit current (Isc) in well-differentiated human bronchial epithelial (HBE) cells, which have a complex ion transport mechanism that includes cystic fibrosis transmembrane conductance regulator (CFTR), epithelial Na^+ channel (ENaC), and Ca^+2-activated chloride channels (CaCCs) ([13]). […] Potential PAT1inh-B01 cytotoxicity was studied in FRT cells.
Figure 3 PAT1inh-B01 selectivity and cytotoxicity. […] Cl^–/I^– exchange or I^– influx measured in FRT cells coexpressing YFP and SLC26A isoforms or TMEM16A, with data shown for 25 μM PAT1inh-B01, DMSO vehicle control, and 500 μM niflumic acid (positive control for SLC26A transporters) or 10 μM TMinh-23 (positive control for TMEM16A). […] (C) (left) Short-circuit current (Isc) in well-differentiated HBE cells measured in the absence (top) and presence (bottom) of 25 μM PAT1inh-B01. […]
YFP-based cellular assays of slc26a3, slc26a4, SLC26A9, and TMEM16A function were performed as described previously ([7]). […] The activities of ENaC, CFTR, and CaCC were determined using well-differentiated HBE cells as described previously ([13]). […]

solubility (Solubility): favorable | inhibition of slc26a4 (slc26a4): did not significantly inhibit
SMILES: Cc1c(Br)c(C(F)(F)F)nn1CC(=O)N1CCc2nc3cc(-c4ccccc4)[nH]n3c(=O)c2C1 [PAT1inh-B01]
effect on fluid absorption from ilea of CF mice [1]: completely blocked
